Key:
[1] = test system: murine cell lines M1011, M158, and 4T1; test: JQ1 cell viability IC50, murine TNBC cell lines (CellTiter Glo); format: cell-based, mouse; conditions: 24 hour treatment, range over murine TNBC cell lines
Procedure: (§1) The specificity and dependence of CART siMYC's inhibitory effect on Myc or MYC levels in murine or human TNBC cells, respectively, was evaluated next. […] A number of different murine and human TNBC cell lines expressing high (murine cells: M158, M1011, and 4T1; and human cells: MDA-MB-231 and MDA-MB-436) or low MYC levels (human cell: BT20) were evaluated. […] The viability of M1011 and 4T1 cells was reduced by 25% upon treatment with CART siMYC but not with CARTs alone or with CART siLUC (FIG. 4B, FIG. 4C). In human TNBC cells, treatment with a human MYC-targeting siRNA (SEQ ID NO: 1) reduced viability by 35% or 22% in MDA-MB-231 or MDA-MB-436 cells, respectively (FIG. 4D, FIG. 4E). […] We conclude that CART siMYC is effective against TNBC cells expressing high, but not low, MYC levels and that the breadth of its therapeutic effects is dependent on cellular MYC levels.
(§2) […] 96-well plates were rocked for 5 minutes at room temperature, 100 μl from each well were transferred to a white opaque 96-well plate and luminescence was read using a SpectraMax Paradigm Multi-Mode Detection Platform plate reader (Molecular Devices).

[2] = test system: human cell lines MDA-MB-436, MDA-MB-231, and BT20; test: JQ1 cell viability IC50, human TNBC cell lines (CellTiter Glo); format: cell-based; conditions: 24 hour treatment, range over human TNBC cell lines
Procedure: as §1, §2

BT20 cells = test: Cell viability after CART with human MYC siRNA, BT20 (low MYC); format: cell-based; conditions: JQ1 at the concentrations used for pre-treatment
Procedure: FIG. 4A to FIG. 4F: CART siMYC decreases cell viability in cells expressing high levels of Myc. […] Error bars represent SEM. Significance was taken at P<0.05 (*), P<0.01 (**), and P<0.005 (***). ns=not significant.
The specificity and dependence of CART siMYC's inhibitory effect on Myc or MYC levels in murine or human TNBC cells, respectively, was evaluated next. […] A number of different murine and human TNBC cell lines expressing high (murine cells: M158, M1011, and 4T1; and human cells: MDA-MB-231 and MDA-MB-436) or low MYC levels (human cell: BT20) were evaluated. […] The viability of M1011 and 4T1 cells was reduced by 25% upon treatment with CART siMYC but not with CARTs alone or with CART siLUC (FIG. 4B, FIG. 4C). In human TNBC cells, treatment with a human MYC-targeting siRNA (SEQ ID NO: 1) reduced viability by 35% or 22% in MDA-MB-231 or MDA-MB-436 cells, respectively (FIG. 4D, FIG. 4E). […]
Plates were incubated for 48 hours and upon treatment completion, a CellTiTer Glow assay was performed according to manufacturer's instructions (Promega). 96-well plates were rocked for 5 minutes at room temperature, 100 μl from each well were transferred to a white opaque 96-well plate and luminescence was read using a SpectraMax Paradigm Multi-Mode Detection Platform plate reader (Molecular Devices).

SMILES: Cc1sc2c(c1C)C(c1ccc(Cl)cc1)=N[C@@H](CC(=O)OC(C)(C)C)c1nnc(C)n1-2 [JQ1]
- IC50 [1]: 0.3 to 0.72 µM
- IC50 [2]: 7 to 32 µM
- effect of JQ1 on BT20 cells (BT20 cells): not significantly affected
